Assay results taken from the supplement of paper PMC10627819.

Columns and labels:
S. aureus DSM 20231 [1] = test: Bliss interaction score (quartile over a dose matrix) (fitness difference); higher = more antagonism (negative = synergy)
Procedure, shortened: (§1)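 The Bliss score takes observed fitness and subtracts the expected fitness, calculated as a product of single-drug fitness values. Those single-drug values were inferred from the combination data. Fitness is OD595 at entry into stationary phase divided by the plate's robust no-drug mean, capped at 1, and the score is summarised by quartiles across technical, biological and donor/recipient replicates.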

B. subtilis 168 = test: as above
Procedure, shortened: as §1

S. pneumoniae D39V [2] = test: as above
Procedure, shortened: as §1

S. aureus Newman [3] = test: as above
Procedure, shortened: as §1

S. aureus DSM 20231 [4] = test: fitness (endpoint OD595 vs no drug) (fraction); higher = more growth
Procedure, shortened: (§2)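 Bacterial growth was followed in 384-well plates seeded at OD595 0.01, with 30 µl per well, or 55 µl for S. pneumoniae, in TSB, LB Lennox or CY at 37 °C. OD595 was read every 30 min for 14 h, and each reading had the first reading subtracted as background. Fitness is the background-corrected optical density at entry into stationary phase divided by the robust mean of the no-drug control wells. This ratio is capped at 1.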

S. pneumoniae D39V [5] = test: as above
Procedure, shortened: as §2

S. aureus Newman [6] = test: as above
Procedure, shortened: as §2
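Wherever Bliss interaction score (quartile over a dose matrix) is given: first quartile when negative (synergy) and third quartile when positive (antagonism).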

CC1(C)S[C@@H]2[C@H](NC(=O)[C@H](N)c3ccc(O)cc3)C(=O)N2[C@H]1C(=O)O [Amoxicillin] + C[n+]1ccc(-c2cc[n+](C)cc2)cc1 [Paraquat]
Settings | Bliss interaction score
B. subtilis 168 | -0.061
S. aureus DSM 20231 [1] | 0.0506
S. aureus Newman [3] | 0.0578
S. pneumoniae D39V [2] | -0.0705

Settings | fitness
S. aureus DSM 20231 [4], first compound 0.0625 µg/mL, partner 1.25 µg/mL | 0.512
S. aureus DSM 20231 [4], first compound 0.0625 µg/mL, partner 2.5 µg/mL | 0.517
S. aureus DSM 20231 [4], first compound 0.0625 µg/mL, partner 5 µg/mL | 0.488
S. aureus DSM 20231 [4], first compound 0.125 µg/mL, partner 1.25 µg/mL | 0.433
S. aureus DSM 20231 [4], first compound 0.125 µg/mL, partner 2.5 µg/mL | 0.498
S. aureus DSM 20231 [4], first compound 0.125 µg/mL, partner 5 µg/mL | 0.431
S. aureus DSM 20231 [4], first compound 0.25 µg/mL, partner 2.5 µg/mL | 0.0563
S. aureus DSM 20231 [4], first compound 0.25 µg/mL, partner 5 µg/mL | 0.0722
S. aureus Newman [6], first compound 0.0625 µg/mL, partner 1.25 µg/mL | 0.89
S. aureus Newman [6], first compound 0.0625 µg/mL, partner 2.5 µg/mL | 0.87
S. aureus Newman [6], first compound 0.0625 µg/mL, partner 5 µg/mL | 0.86
S. aureus Newman [6], first compound 0.125 µg/mL, partner 1.25 µg/mL | 0.861
S. aureus Newman [6], first compound 0.125 µg/mL, partner 2.5 µg/mL | 0.885
S. aureus Newman [6], first compound 0.125 µg/mL, partner 5 µg/mL | 0.838
S. aureus Newman [6], first compound 0.25 µg/mL, partner 5 µg/mL | 0.829
S. pneumoniae D39V [5], first compound 0.0008 µg/mL, partner 1.5 µg/mL | ≥ 1
S. pneumoniae D39V [5], first compound 0.0008 µg/mL, partner 3 µg/mL | 0.961
S. pneumoniae D39V [5], first compound 0.0008 µg/mL, partner 6 µg/mL | 0.921
S. pneumoniae D39V [5], first compound 0.0015 µg/mL, partner 1.5 µg/mL | 0.988
S. pneumoniae D39V [5], first compound 0.0015 µg/mL, partner 3 µg/mL | 0.939
S. pneumoniae D39V [5], first compound 0.0015 µg/mL, partner 6 µg/mL | 0.913
S. pneumoniae D39V [5], first compound 0.003 µg/mL, partner 1.5 µg/mL | 0.96
S. pneumoniae D39V [5], first compound 0.003 µg/mL, partner 3 µg/mL | 0.847
S. pneumoniae D39V [5], first compound 0.003 µg/mL, partner 6 µg/mL | 0.864

fitness, one replicate
Settings | partner 1.25 µg/mL | partner 1.5 µg/mL | partner 2.5 µg/mL | partner 3 µg/mL | partner 5 µg/mL | partner 6 µg/mL
S. aureus DSM 20231 [4], first compound 0.5 µg/mL | 0.0127 | – | 0.0289 | – | 0.0485 | –
S. pneumoniae D39V [5], first compound 0.006 µg/mL | – | 0.542 | – | 0.561 | – | 0.422

CC1(C)S[C@@H]2[C@H](NC(=O)[C@H](N)c3ccc(O)cc3)C(=O)N2[C@H]1C(=O)O [Amoxicillin] + Cc1cc(NS(=O)(=O)c2ccc(N)cc2)no1 [Sulfamethoxazol]
Settings | Bliss interaction score
B. subtilis 168 | -0.0805
S. aureus DSM 20231 [1] | -0.0441
S. aureus Newman [3] | -0.0589
S. pneumoniae D39V [2] | -0.09

fitness
Settings | partner 1 µg/mL | partner 2 µg/mL | partner 4 µg/mL
S. aureus DSM 20231 [4], first compound 0.0625 µg/mL | 0.445 | 0.506 | 0.522
S. aureus DSM 20231 [4], first compound 0.125 µg/mL | 0.376 | – | –
S. aureus DSM 20231 [4], first compound 0.25 µg/mL | 0.0292 | 0.0368 | 0.035
S. aureus Newman [6], first compound 0.0625 µg/mL | 0.878 | 0.88 | 0.883
S. aureus Newman [6], first compound 0.125 µg/mL | 0.858 | 0.876 | 0.876
S. aureus Newman [6], first compound 0.25 µg/mL | 0.81 | 0.847 | 0.844
S. pneumoniae D39V [5], first compound 0.0008 µg/mL | 0.936 | 0.972 | 0.926
S. pneumoniae D39V [5], first compound 0.0015 µg/mL | 0.882 | 0.928 | 0.878
S. pneumoniae D39V [5], first compound 0.003 µg/mL | 0.87 | 0.883 | 0.875

fitness, one replicate
Settings | partner 1 µg/mL | partner 2 µg/mL | partner 4 µg/mL | partner 8 µg/mL
S. aureus DSM 20231 [4], first compound 0.5 µg/mL | 0.015 | 0.0516 | 0.0038 | –
S. aureus Newman [6], first compound 0.125 µg/mL | – | – | – | 0.948
S. aureus Newman [6], first compound 0.25 µg/mL | – | – | – | 0.938
S. aureus Newman [6], first compound 0.5 µg/mL | – | 0.812 | 0.852 | 0.84
S. pneumoniae D39V [5], first compound 0.006 µg/mL | 0.368 | 0.423 | 0.388 | –
